# Data from US20050197350A1, “Novel quinoline, tetrahydroquinazoline, and pyrimidine derivatives and methods of treatment related to the use thereof” (TAISHO PHARMACEUTICAL CO., LTD., priority 2003, published 2005).
# System: MCH receptors
# Test: MCH receptor activity class (method not given)
# Details: class by percent of control at 10^-7 M or IC50
row,SMILES,class
1,CN(C)c1ccnc(N[C@H]2CC[C@@H](NC(=O)c3cc(C(C)(C)C)nn3C)CC2)n1 [compound 304],3 (Class 3 The value of percent of control at 10^−7 M was more than 60% or the value of IC50 was more than 200 nM.)
2,C/C(=C\c1ccccc1)C(=O)N[C@H]1CC[C@@H](Nc2nccc(N(C)C)n2)CC1 [compound 305],3 (Class 3 The value of percent of control at 10^−7 M was more than 60% or the value of IC50 was more than 200 nM.)
3,CN(C)c1ccnc(N[C@H]2CC[C@@H](NC(=O)c3cncc(Br)c3)CC2)n1 [compound 306],3 (Class 3 The value of percent of control at 10^−7 M was more than 60% or the value of IC50 was more than 200 nM.)
4,"CN(C)c1ccnc(N[C@H]2CC[C@@H](NC(=O)Cc3cccc4ccccc34)CC2)n1 [compound 307, N-(cis-4-{[4-(dimethylamino)pyrimidin-2-yl]amino}cyclohexyl)-2-(1-naphthyl)acetamide]",2 (Class 2: The value of percent of control at 10^−7 M was from 40% to 60% or the value of IC′50 was from 50 nM to 200 nM.)
5,Cc1cc(C(=O)N[C@H]2CC[C@@H](Nc3nccc(N(C)C)n3)CC2)nn1C(C)(C)C [compound 308],3 (Class 3 The value of percent of control at 10^−7 M was more than 60% or the value of IC50 was more than 200 nM.)
6,CN(C)c1ccnc(N[C@H]2CC[C@@H](NC(=O)c3csc4ccccc34)CC2)n1 [compound 309],3 (Class 3 The value of percent of control at 10^−7 M was more than 60% or the value of IC50 was more than 200 nM.)
7,"CN(C)c1ccnc(N[C@H]2CC[C@@H](NC(=O)c3ccccc3)CC2)n1 [compound 311, N-(cis-4-{[4-(dimethylamino)pyrimidin-2-yl]amino}cyclohexyl)benzamide]",3 (Class 3 The value of percent of control at 10^−7 M was more than 60% or the value of IC50 was more than 200 nM.)
8,CN(C)c1ccnc(N[C@H]2CC[C@@H](NC(=O)c3cc4ccccc4s3)CC2)n1 [compound 312],3 (Class 3 The value of percent of control at 10^−7 M was more than 60% or the value of IC50 was more than 200 nM.)
9,CN(C)c1ccnc(N[C@H]2CC[C@@H](NC(=O)COCc3ccccc3)CC2)n1 [compound 313],3 (Class 3 The value of percent of control at 10^−7 M was more than 60% or the value of IC50 was more than 200 nM.)
10,CN(C)c1ccnc(N[C@H]2CC[C@@H](NC(=O)COc3ccc(Cl)cc3)CC2)n1 [compound 314],1 (Class 1: The value of percent of control at 10^−7 M was less than 40% or the value of IC50 was less than 50 nM.)
11,CN(C)c1ccnc(N[C@H]2CC[C@@H](NC(=O)C3CCCCC3)CC2)n1 [compound 315],3 (Class 3 The value of percent of control at 10^−7 M was more than 60% or the value of IC50 was more than 200 nM.)
12,Cc1onc(-c2ccccc2Cl)c1C(=O)N[C@H]1CC[C@@H](Nc2nccc(N(C)C)n2)CC1 [compound 316],3 (Class 3 The value of percent of control at 10^−7 M was more than 60% or the value of IC50 was more than 200 nM.)
13,CN(C)c1ccnc(N[C@H]2CC[C@@H](NC(=O)C3(c4ccc(Cl)cc4)CCCC3)CC2)n1 [compound 317],2 (Class 2: The value of percent of control at 10^−7 M was from 40% to 60% or the value of IC′50 was from 50 nM to 200 nM.)
14,Cc1onc(-c2c(F)cccc2Cl)c1C(=O)N[C@H]1CC[C@@H](Nc2nccc(N(C)C)n2)CC1 [compound 318],2 (Class 2: The value of percent of control at 10^−7 M was from 40% to 60% or the value of IC′50 was from 50 nM to 200 nM.)
15,CC(C)S(=O)(=O)c1csc(C(=O)N[C@H]2CC[C@@H](Nc3nccc(N(C)C)n3)CC2)c1Cl [compound 319],3 (Class 3 The value of percent of control at 10^−7 M was more than 60% or the value of IC50 was more than 200 nM.)
16,CN(C)c1ccnc(N[C@H]2CC[C@@H](NC(=O)c3ccc([N+](=O)[O-])cc3Cl)CC2)n1 [compound 320],3 (Class 3 The value of percent of control at 10^−7 M was more than 60% or the value of IC50 was more than 200 nM.)
17,Cc1cc(C(=O)N[C@H]2CC[C@@H](Nc3nccc(N(C)C)n3)CC2)n(C)n1 [compound 321],3 (Class 3 The value of percent of control at 10^−7 M was more than 60% or the value of IC50 was more than 200 nM.)
18,COc1ccc(C(=O)N[C@H]2CC[C@@H](Nc3nccc(N(C)C)n3)CC2)cc1OC [compound 322],3 (Class 3 The value of percent of control at 10^−7 M was more than 60% or the value of IC50 was more than 200 nM.)
19,CN(C)c1ccnc(N[C@H]2CC[C@@H](NC(=O)c3cccc(F)c3)CC2)n1 [compound 323],3 (Class 3 The value of percent of control at 10^−7 M was more than 60% or the value of IC50 was more than 200 nM.)
20,"CN(C)c1ccnc(N[C@H]2CC[C@@H](NC(=O)c3ccc(F)c(C(F)(F)F)c3)CC2)n1 [compound 324, N-(cis-4-{[4-(dimethylamino)pyrimidin-2-yl]amino}cyclohexyl)-4-fluoro-3-(trifluoromethyl)benzamide]",1 (Class 1: The value of percent of control at 10^−7 M was less than 40% or the value of IC50 was less than 50 nM.)

row,SMILES,class
1,"Cc1nn(-c2ccccc2)nc1C(=O)N[C@H]1CC[C@@H](Nc2nccc(N(C)C)n2)CC1 [compound 325, N-(cis-4-{[4-(dimethylamino)pyrimidin-2-yl]amino}cyclohexyl)-5-methyl-2-phenyl-2H-1,2,3-triazole-4-carboxamide]",1 (Class 1: The value of percent of control at 10^−7 M was less than 40% or the value of IC50 was less than 50 nM.)
2,"COc1ccc(Oc2ccc([N+](=O)[O-])cc2C(=O)N[C@H]2CC[C@@H](Nc3nccc(N(C)C)n3)CC2)cc1 [compound 326, N-(cis-4-{[4-(dimethylamino)pyrimidin-2-yl]amino}cyclohexyl)-2-(4-methoxyphenoxy)-5-nitrobenzamide]",1 (Class 1: The value of percent of control at 10^−7 M was less than 40% or the value of IC50 was less than 50 nM.)
3,CN(C)c1ccnc(N[C@H]2CC[C@@H](NC(=O)c3cccc4ccccc34)CC2)n1 [compound 327],3 (Class 3 The value of percent of control at 10^−7 M was more than 60% or the value of IC50 was more than 200 nM.)
4,CN(C)c1ccnc(N[C@H]2CC[C@@H](NC(=O)c3ccc4ccccc4c3)CC2)n1 [compound 328],3 (Class 3 The value of percent of control at 10^−7 M was more than 60% or the value of IC50 was more than 200 nM.)
5,CN(C)c1ccnc(N[C@H]2CC[C@@H](NC(=O)c3ccc([N+](=O)[O-])o3)CC2)n1 [compound 329],3 (Class 3 The value of percent of control at 10^−7 M was more than 60% or the value of IC50 was more than 200 nM.)
6,"CN(C)c1ccnc(N[C@H]2CC[C@@H](NC(=O)COc3ccccc3)CC2)n1 [compound 330, N-(cis-4-{[4-(dimethylamino)pyrimidin-2-yl]amino}cyclohexyl)-2-phenoxyacetamide]",2 (Class 2: The value of percent of control at 10^−7 M was from 40% to 60% or the value of IC′50 was from 50 nM to 200 nM.)
7,CN(C)c1ccnc(N[C@H]2CC[C@@H](NC(=O)COc3ccccc3[N+](=O)[O-])CC2)n1 [compound 331],3 (Class 3 The value of percent of control at 10^−7 M was more than 60% or the value of IC50 was more than 200 nM.)
8,CN(C)c1ccnc(N[C@H]2CC[C@@H](NC(=O)c3cnc4ccccc4n3)CC2)n1 [compound 332],1 (Class 1: The value of percent of control at 10^−7 M was less than 40% or the value of IC50 was less than 50 nM.)
9,COc1cc(C(=O)N[C@H]2CC[C@@H](Nc3nccc(N(C)C)n3)CC2)cc(OC)c1OC [compound 333],3 (Class 3 The value of percent of control at 10^−7 M was more than 60% or the value of IC50 was more than 200 nM.)
10,"CN(C)c1ccnc(N[C@H]2CC[C@@H](NC(=O)c3cccc(C(F)(F)F)c3)CC2)n1 [compound 334, N-(cis-4-{[4-(dimethylamino)pyrimidin-2-yl]amino}cyclohexyl)-3-(trifluoromethyl)benzamide]",2 (Class 2: The value of percent of control at 10^−7 M was from 40% to 60% or the value of IC′50 was from 50 nM to 200 nM.)
11,CN(C)c1ccnc(N[C@H]2CC[C@@H](NC(=O)c3ccc(C(F)(F)F)cc3)CC2)n1 [compound 335],3 (Class 3 The value of percent of control at 10^−7 M was more than 60% or the value of IC50 was more than 200 nM.)
12,CN(C)c1ccnc(N[C@H]2CC[C@@H](NC(=O)c3ccccc3OC(F)(F)F)CC2)n1 [compound 336],3 (Class 3 The value of percent of control at 10^−7 M was more than 60% or the value of IC50 was more than 200 nM.)
13,COc1cc(COC(=O)N[C@H]2CC[C@@H](Nc3nccc(N(C)C)n3)CC2)c([N+](=O)[O-])cc1OC [compound 337],3 (Class 3 The value of percent of control at 10^−7 M was more than 60% or the value of IC50 was more than 200 nM.)
14,CN(C)c1ccnc(N[C@H]2CC[C@@H](NC(=O)CCCOc3ccccc3)CC2)n1 [compound 338],3 (Class 3 The value of percent of control at 10^−7 M was more than 60% or the value of IC50 was more than 200 nM.)
15,COc1ccc(Br)c(C(=O)N[C@H]2CC[C@@H](Nc3nccc(N(C)C)n3)CC2)c1 [compound 339],3 (Class 3 The value of percent of control at 10^−7 M was more than 60% or the value of IC50 was more than 200 nM.)
16,"CN(C)c1ccnc(N[C@H]2CC[C@@H](NC(=O)COc3c(F)c(F)c(F)c(F)c3F)CC2)n1 [compound 340, N-(cis-4-{[4-(dimethylamino)pyrimidin-2-yl]amino}cyclohexyl)-2-(pentafluorophenoxy)acetamide]",2 (Class 2: The value of percent of control at 10^−7 M was from 40% to 60% or the value of IC′50 was from 50 nM to 200 nM.)
17,COc1ccc(CC(=O)N[C@H]2CC[C@@H](Nc3nccc(N(C)C)n3)CC2)cc1OC [compound 341],3 (Class 3 The value of percent of control at 10^−7 M was more than 60% or the value of IC50 was more than 200 nM.)
18,CN(C)c1ccnc(N[C@H]2CC[C@@H](NC(=O)c3ccc(F)c(F)c3F)CC2)n1 [compound 342],3 (Class 3 The value of percent of control at 10^−7 M was more than 60% or the value of IC50 was more than 200 nM.)
19,CN(C)c1ccnc(N[C@H]2CC[C@@H](NC(=O)C3CCCC3)CC2)n1 [compound 343],3 (Class 3 The value of percent of control at 10^−7 M was more than 60% or the value of IC50 was more than 200 nM.)
